Source: patent US20140358576A1, “SYSTEM AND METHOD FOR SURVEILLANCE AND EVALUATION OF SAFETY RISKS ASSOCIATED WITH MEDICAL INTERVENTIONS” (Adverse Events, Inc., priority 2013, published 2014)
Read-outs that look alike come from different tables or passages of the source.

What was measured:
[1] = for Condition Seriousness: Example 1 component score, up to 8.68 points; for Literature / ROR / RxScore / Adverse Event Seriousness / Outcome: human
[2] = RxScore calculation, Example 2 (FAERS components with event reporter Importance Weighting, no FDA warning/DEA schedule); conditions: for RxScore: Example 2, maximum of 100 total points, Importance Weighting applied; for Condition Seriousness / Adverse Event Seriousness / Outcome: Example 2 component score; for Condition Seriousness: up to 12 points; for Adverse Event Seriousness: up to 27 points; for Outcome: up to 35 points, comorbidity adjusted; for ROR: Example 2 disproportionality measure component score, up to 20 points; for Report Priority: Example 2 report type component score, up to 6 points
[3] = patients, post-approval; cited from earlier work
[4] = human

Compound	Condition Seriousness [1]	Literature [1]	ROR [1]	RxScore [1]	Outcome [1]	other results
CCCCC[C@H](O)CC[C@@H]1[C@H]2Cc3cccc(OCC(=O)O)c3C[C@H]2C[C@H]1O [treprostinil]	4.00	0.0				
COc1ccccc1Oc1c(NS(=O)(=O)c2ccc(C(C)(C)C)cc2)nc(-c2ncccn2)nc1OCCO [bosentan]	2.07		3.81	81.44		
O=P(O)(O)C(O)(Cc1cccnc1)P(=O)(O)O [risedronate sodium (Atelvia), risedronate sodium]						RxScore [2]: 39.63; Condition Seriousness [2]: 2.40; Adverse Event Seriousness [2]: 4.60; Outcome [2]: 12.68; ROR [2]: 5.34; Report Priority [2]: 1.63
CS(=O)(=O)c1ccc(C2=C(c3ccccc3)C(=O)OC2)cc1 [Vioxx, rofecoxib]						side effect that became evident after FDA approval [3]: increased heart attack and stroke rates
O=P(O)(O)C(O)(Cc1cccnc1)P(=O)(O)O [risedronate sodium (Actonel), risedronate sodium]						RxScore [2]: 46.13; Condition Seriousness [2]: 2.40; Adverse Event Seriousness [2]: 8.19; Outcome [2]: 13.15; ROR [2]: 4.82; Report Priority [2]: 3.46
NCCCC(O)(P(=O)(O)O)P(=O)(O)O [alendronate]	7.02	5.0				
CCC(=O)C(CC(C)N(C)C)(c1ccccc1)c1ccccc1 (stereo not drawn) [methadone]		18.8	4.85			
Nc1nc(F)nc2c1ncn2[C@@H]1O[C@H](CO)[C@@H](O)[C@@H]1O [fludarabine]		12.5	4.60	78.34	15.34	Adverse Event Seriousness [1]: 12.69
CC(C)CC(N(C)C)C1(c2ccc(Cl)cc2)CCC1 (stereo not drawn) [Meridia, Sibutramine]						side effect that became evident after FDA approval [3]: severe cardiac complications
CN1CC[C@]23c4c5ccc(O)c4O[C@H]2C(=O)CC[C@@]3(O)[C@H]1C5 [oxymorphone]		18.8	3.98	77.03	10.33	Adverse Event Seriousness [1]: 6.21
COc1ccc2c3c1O[C@H]1C(=O)CC[C@@]4(O)[C@@H](C2)N(C)CC[C@]314 [oxycodone]		18.8	5.51	100.00	14.81	disproportionality (ROR) score [4]: 268; Adverse Event Seriousness [1]: 14.17
COCc1c(C(C)C)nc(C(C)C)c(/C=C/[C@@H](O)C[C@@H](O)CC(=O)O)c1-c1ccc(F)cc1 [Baycol]						side effect that became evident after FDA approval [3]: a fatal muscle-wasting syndrome
CN(CCOc1ccc(CC2SC(=O)NC2=O)cc1)c1ccccn1 (stereo not drawn) [rosiglitazone]	3.77	12.5	5.53	79.48	12.18	
